Several values for one entry are separate records, joined by “and”; a condition that tells them apart may be missing. Equal entries are not always repeated.
How the values were obtained:
[1] = system: TNFα release from THP-1-derived macrophages; experiment: TNFα in macrophage supernatants after CPP2 and compounds; format: cell-based, human; conditions: for TNFα concentration in macrophage supernatants: 24 h, unit not given
Method: Macrophage accumulation and inflammation coincide with the initial phase of calcification. To this end, VSMCs and THP-1-derived macrophages were exposed to CPP2-supplemented medium. CPP2 prepared from human serum as described previously[61] (Supplementary Figs. 6 and 7), induced a pronounced VSMC monolayer calcification after 48 h, which was decreased by (OEG2)2-IP4 in a dose-dependent fashion, and the effect became significant at 10 µM (Fig. 3e). […] Both H2O2 (proxy for oxidative stress) and tumor necrosis factor-alpha (TNF-α) (proxy for inflammatory response) levels were assayed in the VSMC culture supernatants subsequent to CPP2 treatment with and without compounds[30]. However, no increase in H2O2 nor TNF-α compared to control could be detected in either assay. For the CPP-induced VSMC calcification assay (Fig. 3e) a roughly 10-fold higher concentration of (OEG2)2-IP4 was necessary to achieve similar activity as in the CaP-induced VSMC calcification assay (Fig. 3b). […] In the CaP assay, low inhibitor concentration may be sufficient to inhibit crystal nucleation, whereas for the CPP assay higher inhibitor concentrations may be needed to achieve sufficient particle stabilization by chemisorption of inhibitor onto CPPs. Similar results have been reported for hydrogen sulfide in the context of VC[62],[64]. […] An increase in the TNFα levels in the cell culture supernatants was not observed for (OEG2)2-IP4 with (Fig. 3h) and without (Supplementary Fig. 10) combined CPP2 treatment.
THP-1 cells were plated at a density of 200,000 cells/well in a 24-well plate, differentiated as stated above, and subsequently treated with or without CPP2 (50 μg Ca/mL) in complete medium with or without test compounds (3, 10, 30, 100 μM) for 24 h at 37 °C, 5% CO2.
Human TNF-α was assayed in cell culture supernatants using commercial multiplex immunoassay kits (U-Plex of TNF-α (custom-made multiplex plate) and Human TNF- Kit (K151QWD-1), both from MesoScaleDiscovery, Rockville, MD, USA), and corrected for total protein content using the Micro BCA^TM Protein Assay Kit.

[2] = 18F-NaF micro-PET/CT uptake on calcified human femoral arteries ex vivo; format: binding
Method: To investigate (OEG2)2-IP4 interaction with calcified tissues in a clinically relevant context, a competitive binding assay using ^18F-NaF was applied on severely calcified human femoral arteries and native aortic valves ex vivo. […] First, ^18F-NaF uptake was measured on tissue samples treated with vehicle (human serum) and thereafter, using the same tissue samples, treated with (OEG2)2-IP4 in serum.
Triplicate aliquots of CPP2s (20 µg Ca/mL) in 100 μL assay buffer (100 mM HBS, pH 7.4 (RT)) were incubated for 1 h at RT in the presence of increasing concentrations of compounds in 50 μL Milli-Q water and ^18F-NaF (1 nM) in 50 μL assay buffer, resulting in a total incubation volume of 200 μL (^18F-NaF was prepared using a FASTlab synthesizer (GE Healthcare, Little Chalfont, UK) and commercially available ^18F-NaF cassettes (GE Healthcare)). Maximum radiotracer binding was determined by incubating CPP2s with ^18F-NaF (1 nM) only. The reaction was terminated by rapid filtration through a SOLAμ™ SPE plate (HRP 2 mg/mL 96-well plate, 22 μm; Thermo Fisher Scientific). SPE individual column matrices were washed twice rapidly in assay buffer and radioactivity on the filters determined by an automatic gamma counter (Wizard2 Gamma Counter, Perkin Elmer, Waltham, MA, USA). […]

[3] = biological target: T1, Peptidase, CTSG (Cathepsin G) (Homo sapiens, UniProt P08311); experiment: Off-target 112510; format: biochemical
T1 construct: purchased Eurofins Panlabs Discovery Services Taiwan, Ltd
Method: (§1) The potential off-target activity of 10 µM (OEG2)2-IP4 was assessed against a panel of 87 enzymes, receptors, or ion channels that are used in standard safety pharmacology screens.
(§2) 3.2. Off-target screening assay
(§3) The experiments were conducted by a contract research organization (Eurofins Panlabs Discovery Services Taiwan, Ltd.) and details on the respective assays can be retrieved via the catalog number provided in Supplementary Table 11 from the company’s webpage
(§4) (https://www.eurofinsdiscoveryservices.com/). […]
(§5) At sacrifice the left tibia of animals of the rat model with dietary adenine/high-phosphate-induced uremia and VC was collected, fixed with 70% v/v EtOH and embedded in methyl methacrylate. The trabecular bone compartment is known to be the most metabolic active i.e. actively re-structured bone compartment in CKD. Therefore, histomorphometric and micro-computed tomography (µCT) analysis of bone was performed on the trabecular compartment. Tibial sections were Goldner-stained for histomorphometric analysis of the proximal metaphysis using the AxioVision Release 4.5 software, as […]
(§6) described previously5. […]

Cannabinoid CB2 = biological target: T2, Cannabinoid CB2 (Homo sapiens, UniProt P34972); experiment: Off-target 217100; format: binding
T2 construct: purchased Eurofins Panlabs Discovery Services Taiwan, Ltd
Method: as §1, §2, §3, §4, §5, §6

[4] = biological target: T3, Serotonin (5-Hydroxytryptamine) 5-HT2B (Homo sapiens, UniProt P41595); experiment: Off-target 271700; format: binding
T3 construct: purchased Eurofins Panlabs Discovery Services Taiwan, Ltd
Method: as §1, §2, §3, §4, §5, §6

[5] = biological target: T4, Transporter, Norepinephrine (NET) (Homo sapiens, UniProt P23975); experiment: Off-target 204410; format: binding
T4 construct: purchased Eurofins Panlabs Discovery Services Taiwan, Ltd
Method: as §1, §2, §3, §4, §5, §6

T4 sequence (P23975 whole entry): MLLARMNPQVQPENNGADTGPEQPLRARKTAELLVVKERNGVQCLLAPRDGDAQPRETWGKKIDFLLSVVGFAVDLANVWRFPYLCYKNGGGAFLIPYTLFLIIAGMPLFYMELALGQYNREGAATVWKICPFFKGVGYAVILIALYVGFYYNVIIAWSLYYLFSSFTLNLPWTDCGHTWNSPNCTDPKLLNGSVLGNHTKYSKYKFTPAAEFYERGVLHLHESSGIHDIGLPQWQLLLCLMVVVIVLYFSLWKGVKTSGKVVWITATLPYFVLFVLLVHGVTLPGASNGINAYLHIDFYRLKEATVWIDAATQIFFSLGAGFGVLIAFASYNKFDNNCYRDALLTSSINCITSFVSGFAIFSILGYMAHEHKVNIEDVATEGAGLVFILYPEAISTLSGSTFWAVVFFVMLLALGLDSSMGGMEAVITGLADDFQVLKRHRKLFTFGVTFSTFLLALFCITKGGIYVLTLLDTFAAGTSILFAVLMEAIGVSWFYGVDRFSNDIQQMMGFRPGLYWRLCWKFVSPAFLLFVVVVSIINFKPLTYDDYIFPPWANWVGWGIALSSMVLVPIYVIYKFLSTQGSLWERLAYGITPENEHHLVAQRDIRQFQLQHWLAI
T3 sequence (P41595 whole entry): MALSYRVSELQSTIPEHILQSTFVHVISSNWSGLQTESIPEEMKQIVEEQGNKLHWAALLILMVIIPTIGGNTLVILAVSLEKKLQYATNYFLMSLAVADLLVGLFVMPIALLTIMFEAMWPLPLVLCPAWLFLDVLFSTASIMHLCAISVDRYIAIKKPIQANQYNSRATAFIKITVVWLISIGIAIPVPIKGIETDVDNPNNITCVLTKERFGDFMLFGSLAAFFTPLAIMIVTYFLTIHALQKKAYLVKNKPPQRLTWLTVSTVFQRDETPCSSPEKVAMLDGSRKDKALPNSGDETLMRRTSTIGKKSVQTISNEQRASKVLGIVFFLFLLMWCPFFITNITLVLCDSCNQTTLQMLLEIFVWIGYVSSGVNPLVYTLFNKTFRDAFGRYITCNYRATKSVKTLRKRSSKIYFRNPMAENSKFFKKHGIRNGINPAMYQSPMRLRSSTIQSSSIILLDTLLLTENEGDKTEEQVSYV
T2 sequence (P34972 whole entry): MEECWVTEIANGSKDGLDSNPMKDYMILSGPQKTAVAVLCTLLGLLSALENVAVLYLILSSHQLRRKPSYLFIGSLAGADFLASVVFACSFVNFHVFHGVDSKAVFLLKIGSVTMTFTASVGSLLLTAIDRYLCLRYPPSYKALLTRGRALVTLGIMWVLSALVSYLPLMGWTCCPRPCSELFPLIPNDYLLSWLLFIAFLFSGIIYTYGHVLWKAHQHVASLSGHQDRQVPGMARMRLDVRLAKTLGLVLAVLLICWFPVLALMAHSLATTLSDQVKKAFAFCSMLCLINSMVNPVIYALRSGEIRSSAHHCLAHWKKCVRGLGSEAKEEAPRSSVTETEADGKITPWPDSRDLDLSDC
T1 sequence (P08311 21-255): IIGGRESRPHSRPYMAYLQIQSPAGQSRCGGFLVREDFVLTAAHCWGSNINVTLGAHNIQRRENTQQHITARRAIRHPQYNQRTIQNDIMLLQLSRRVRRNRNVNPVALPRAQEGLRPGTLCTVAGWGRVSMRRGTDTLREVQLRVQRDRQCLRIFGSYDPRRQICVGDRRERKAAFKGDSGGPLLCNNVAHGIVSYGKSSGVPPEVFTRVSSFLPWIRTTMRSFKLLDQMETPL

For COCCOCCO[C@@H]1[C@@H](OP(=O)(O)O)[C@H](OCCOCCOC)[C@@H](OP(=O)(O)O)[C@@H](OP(=O)(O)O)[C@H]1OP(=O)(O)O [(OEG2)2-IP4, 4,6-Di-O-(methoxy-diethyleneglycol)-myo-inositol-1,2,3,5-tetrakis(phosphate)], which “TNFα concentration in macrophage supernatants” value (from here on “TNFα concentration”) ([1]; 3 µM + CPP2 50 µg Ca/mL, replicates Fig. 3h) is on record?
The value was 169.13 and 90.77 and 60.49.

And the “TNFα concentration” value ([1]; 10 µM + CPP2 50 µg Ca/mL)?
The value was 111.79 and 105.92 and 63.72.

What about the “TNFα concentration” value ([1]; 30 µM + CPP2 50 µg Ca/mL) of the same molecule?
Its value is 131.34 and 98.11 and 72.68.

What about the “increase in TNFα levels in supernatants” value ([1]; with combined CPP2 treatment) of the same molecule?
Its value is “not observed”.

What about the “change of 18F-NaF uptake vs vehicle” value ([2]; 8.6 μM in human serum) of the same molecule?
The value was −38%.

And the “maximum average 18F binding (18F-NaF-PET)” value ([2]; IC90 concentration in human serum, individual samples Fig. 3j, unit not given)?
Its value is 319.764 and 464.582 and 653.422 and 447.312 and 563.189 and 486.153 and 450.235.

And the inhibition at 10 µM [3]?
Its inhibition at 10 µM is 23%.

What about the inhibition at 10 µM (Cannabinoid CB2) of the same molecule?
Its inhibition at 10 µM is 12%.

And the inhibition at 10 µM [4]?
The inhibition at 10 µM was 1%.

What about the inhibition at 10 µM [5] of the same molecule?
Its inhibition at 10 µM is 20%.

Reference: PMC7002685, “Inhibition of vascular calcification by inositol phosphates derivatized with ethylene glycol oligomers” (Nature Communications, 2020)
